Among the data in patent US12638438B2, “Screening methods using canine T2R receptors and pet food products and compositions identified using the same” (MARS, INCORPORATED, priority 2015, dated 2026) are EC50 values, retold here.

Assay [1] concerns the target T1, canine T2R5 (Canis lupus, UniProt Q2ABD6).
T1 sequence (Q2ABD6 1-295): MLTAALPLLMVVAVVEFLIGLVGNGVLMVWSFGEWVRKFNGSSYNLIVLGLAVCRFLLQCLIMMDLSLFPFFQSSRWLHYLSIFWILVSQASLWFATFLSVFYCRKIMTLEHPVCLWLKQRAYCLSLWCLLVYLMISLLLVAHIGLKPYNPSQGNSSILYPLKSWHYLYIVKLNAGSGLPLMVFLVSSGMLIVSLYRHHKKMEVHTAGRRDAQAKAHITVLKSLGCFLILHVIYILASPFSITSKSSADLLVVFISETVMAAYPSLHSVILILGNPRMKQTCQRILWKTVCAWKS
In words: Canine T2R5 activation, intracellular calcium assay in transiently transfected HEK293 cells, dose response (FIG. 7E). It is filed as cell-based. The text has this: There is a potential hydrogen bond between Ser89 and each nitrogen of 1, 10 Phenanthroline. Additional residues that can potentially make van der Waals or Pi interactions with the ligand include Pro264, Leu58, Val88, Gln90, Ile86, Leu173, Trp165, Thr258, Ala261, Tyr234, Glu257, Met260, and Trp85.
(§1) No wash step was required for the luminescent protocol.
(In general: Calcium assays in cells follow changes in intracellular calcium, usually with a dye or a luminescent sensor.)

In assay [2] the target is T2, canine T2R3 (Canis lupus, UniProt Q2ABD8).
T2 sequence (Q2ABD8 1-316): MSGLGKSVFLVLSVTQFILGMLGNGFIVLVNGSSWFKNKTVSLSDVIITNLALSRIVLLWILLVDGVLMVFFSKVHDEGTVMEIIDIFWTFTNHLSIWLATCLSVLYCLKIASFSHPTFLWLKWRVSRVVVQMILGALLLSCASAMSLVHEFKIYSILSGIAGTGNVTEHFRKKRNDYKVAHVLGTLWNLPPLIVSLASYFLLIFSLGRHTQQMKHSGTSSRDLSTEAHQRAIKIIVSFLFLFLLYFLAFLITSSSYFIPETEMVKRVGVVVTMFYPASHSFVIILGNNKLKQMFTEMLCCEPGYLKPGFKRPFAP
Description: Canine T2R3 activation, intracellular calcium assay in transiently transfected HEK293 cells, dose response (FIG. 5E). Particulars: agonist; HEK293 transient, cT2R3 (SEQ ID NO:19); calcium fluorescence or luminescence, FLIPR Tetra; at least 8 concentrations in triplicate. Type of assay: cell-based.
Text: Residues that can make hydrogen bonding or charged interactions with the ligand include Asn93 and Asp86. […] Additional residues making primarily van der Waals interactions with the ligand include Phe250, Gly185, Phe243, Thr90, Asn176, Val149, Ile154, Lys174, Met82, Ile85, Lys173, and Met69.
as §1

Assay [3] deals with T3, canine T2R10 (Canis lupus, UniProt Q2ABD4).
T3 sequence (Q2ABD4 1-322): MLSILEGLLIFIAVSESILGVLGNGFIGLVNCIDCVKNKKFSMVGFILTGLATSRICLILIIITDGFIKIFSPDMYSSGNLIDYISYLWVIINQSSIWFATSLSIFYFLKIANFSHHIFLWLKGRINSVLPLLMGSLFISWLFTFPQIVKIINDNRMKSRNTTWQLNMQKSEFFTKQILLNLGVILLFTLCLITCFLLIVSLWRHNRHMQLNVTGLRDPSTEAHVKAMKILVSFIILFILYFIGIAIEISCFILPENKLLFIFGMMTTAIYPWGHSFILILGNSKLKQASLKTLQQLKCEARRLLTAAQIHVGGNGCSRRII
Description: Canine T2R10 activation, intracellular calcium assay in transiently transfected HEK293 cells, dose response (FIG. 8E). It is filed as cell-based. Particulars: agonist; HEK293 transient, cT2R10 (SEQ ID NO:23); calcium fluorescence or luminescence, FLIPR Tetra; at least 8 concentrations in triplicate.
Text: Lys258 and Leu180 (backbone) can potentially make hydrogen bonds with the ligand.
as §1

The target in assay [4] is T4, canine T2R1 (Canis lupus, UniProt Q2ABE0).
T4 sequence (Q2ABE0 1-297): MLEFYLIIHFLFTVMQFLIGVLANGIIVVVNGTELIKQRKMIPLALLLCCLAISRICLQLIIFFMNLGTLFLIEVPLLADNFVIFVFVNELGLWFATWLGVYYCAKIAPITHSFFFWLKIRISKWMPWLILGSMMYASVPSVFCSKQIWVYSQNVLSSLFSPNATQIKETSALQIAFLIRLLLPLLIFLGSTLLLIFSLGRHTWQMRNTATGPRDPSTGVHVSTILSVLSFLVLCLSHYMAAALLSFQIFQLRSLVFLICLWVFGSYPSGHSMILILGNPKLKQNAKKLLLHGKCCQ
Description: Canine T2R1 activation, intracellular calcium assay in transiently transfected HEK293 cells, dose response (FIG. 3E). It is filed as cell-based.
Text: FIGS. 2A-2C show canine T2R sequence alignments. The dashed grey arrows indicate active site positions occupied by mostly asparagine or serine residues. The solid black arrows indicate structural tryptophan residues that are present in all human and cat bitter receptors as well as all canine bitter receptors except T2R12. The dashed black arrows indicate the conserved asparagine which is present in most of the bitter receptors. The conjoined solid arrows indicate the conserved LxxxR motif (IxxxR for some instances in T2R2), wherein x can be any amino acid. […] Asn89 can potentially make a hydrogen bond interaction with the ligand. Other residues that can potentially make hydrogen bonding interactions, pi interactions, or charged interactions with the ligand include Tyr239.
as §1

Assay [5] deals with T5, canine T2R2 (Canis lupus, UniProt Q2ABD9).
T5 sequence (Q2ABD9 1-303): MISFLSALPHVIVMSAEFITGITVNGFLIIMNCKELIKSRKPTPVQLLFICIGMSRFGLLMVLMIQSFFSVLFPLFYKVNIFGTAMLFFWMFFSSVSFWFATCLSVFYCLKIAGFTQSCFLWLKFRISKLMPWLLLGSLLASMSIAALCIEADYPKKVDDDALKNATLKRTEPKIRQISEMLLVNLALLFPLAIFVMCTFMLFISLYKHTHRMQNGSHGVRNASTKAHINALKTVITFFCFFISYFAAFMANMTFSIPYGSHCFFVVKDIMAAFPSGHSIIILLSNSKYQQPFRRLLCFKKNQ
Description: Canine T2R2 activation, intracellular calcium assay in transiently transfected HEK293 cells, dose response (FIG. 4E). Type of assay: cell-based. The note with it: agonist; HEK293 transient, cT2R2 (SEQ ID NO:18); calcium fluorescence or luminescence, FLIPR Tetra; at least 8 concentrations in triplicate.
Text: Residues that can potentially make hydrogen bond or salt bridge interactions with the ligand include Ser94, Trp90, Lys268, Tyr245, and Glu180.
as §1

Assay [6] addresses canine T2R43 (Canis lupus, UniProt A0A8I3S925). In words: cell-based.
Description: In vitro functional characterization of the selected modulators was used to evaluate the effectiveness of the putative modulator compounds in modulating the activation of the bitter taste receptors.
HEK293 cells that transiently expressed a canine bitter taste receptor selected from canine T2R1, T2R2, T2R3, T2R4, T2R5, T2R10, and T2R43, were exposed to compounds to determine whether the compounds modulated the activity of the bitter taste receptors.
All transient transfections were performed with Lipofectamine2000 (Invitrogen) according to the manufactures protocol. 10 μl Lipofectamine2000 were diluted in 500 μl DMEM (Life Technologies) and incubated for 5 minutes at room temperature. […] At 27 to 30 hours post-transfection the medium was removed from the cells and 20 μl loading buffer that included a calcium sensitive fluorescent dye or luminescent substrate (Tyrode's buffer+2 μM Fluo4-AM (Invitrogen)+2.5 mM probenecid (Invitrogen) for fluorescence or Coelenterazine (Biosynth)+Tyrode's buffer for luminescence) were added for 1 hour (fluorescence) or 3 hours (luminescence) at 37° C. […]
Activation of the bitter taste receptor was determined by detecting a change in intracellular calcium levels as measured by fluorescence or luminescence of the calcium sensitive fluorescent dye or luminescent photoprotein. […] A FLIPR® Tetra system was used to measure fluorescence or luminescence. […]

canine T2R43, sequence (A0A8I3S925 1-349): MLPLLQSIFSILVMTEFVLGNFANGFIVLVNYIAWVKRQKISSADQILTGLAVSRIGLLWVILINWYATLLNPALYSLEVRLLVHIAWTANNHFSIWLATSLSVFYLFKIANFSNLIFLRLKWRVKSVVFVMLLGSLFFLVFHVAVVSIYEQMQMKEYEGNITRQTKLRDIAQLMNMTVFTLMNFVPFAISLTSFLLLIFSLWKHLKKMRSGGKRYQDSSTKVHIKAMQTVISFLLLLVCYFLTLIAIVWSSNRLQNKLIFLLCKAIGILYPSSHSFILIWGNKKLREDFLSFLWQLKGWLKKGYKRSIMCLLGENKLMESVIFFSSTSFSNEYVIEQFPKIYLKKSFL

With `c1cnc2c(c1)ccc1cccnc12` [1, 10 Phenanthroline, 1,10-phenanthroline], in assay [1], the EC50 (as a rule, the concentration that produces a half-maximal response) worked out at 564 ± 114 µM.
In the case of `CCN(CC)CCCC(C)Nc1ccnc2cc(Cl)ccc12` (stereo not drawn) [Chloroquine], the EC50 in assay [2] came out at 81 ± 11 µM.
As for `CC(=O)OC(C)(C)/C=C/C(=O)[C@](C)(O)[C@H]1[C@H](O)C[C@@]2(C)[C@@H]3CC=C4[C@@H](C[C@H](O)C(=O)C4(C)C)[C@]3(C)C(=O)C[C@]12C` [Cucurbitacin B], the EC50 in assay [3] worked out at 0.3 ± 0.034 µM.
`CC(C)[C@@H]1CC[C@@H](C)C[C@H]1O` [Menthol]: the EC50 in assay [4] amounted to 1080 ± 216 µM.
Consider `CC1COc2c(N3CCN(C)CC3)c(F)cc3c(=O)c(C(=O)O)cn1c23` (stereo not drawn) [Ofloxacin], for which the concentration giving a half-maximal response (EC50) in assay [5] was 232 ± 14 µM.
Turning to `CCCc1cc(=O)[nH]c(=S)[nH]1` [Propylthiouracil], in assay [6], the EC50 stood at 126 ± 23 µM.
